{
  "source": "patent US9067894B1",
  "about": "“Compound, composition, and method of activating GIRK potassium channel and use of same for treating conditions of interest” (Vanderbilt University, priority 2013, dated 2015)",
  "key": {"Nicotinic acetylcholine": {"tested_on": "Nicotinic acetylcholine", "assay": "Radioligand displacement (Ricerca), second nicotinic entry", "assay_type": "binding, human", "conditions": "10 μM; second Nicotinic acetylcholine line"}, "hERG": {"target": "T1, hERG (Homo sapiens, UniProt Q12809)", "T1 construct": "Ricerca (contract laboratory that ran the panel)", "T1 sequence (Q12809 whole entry)": "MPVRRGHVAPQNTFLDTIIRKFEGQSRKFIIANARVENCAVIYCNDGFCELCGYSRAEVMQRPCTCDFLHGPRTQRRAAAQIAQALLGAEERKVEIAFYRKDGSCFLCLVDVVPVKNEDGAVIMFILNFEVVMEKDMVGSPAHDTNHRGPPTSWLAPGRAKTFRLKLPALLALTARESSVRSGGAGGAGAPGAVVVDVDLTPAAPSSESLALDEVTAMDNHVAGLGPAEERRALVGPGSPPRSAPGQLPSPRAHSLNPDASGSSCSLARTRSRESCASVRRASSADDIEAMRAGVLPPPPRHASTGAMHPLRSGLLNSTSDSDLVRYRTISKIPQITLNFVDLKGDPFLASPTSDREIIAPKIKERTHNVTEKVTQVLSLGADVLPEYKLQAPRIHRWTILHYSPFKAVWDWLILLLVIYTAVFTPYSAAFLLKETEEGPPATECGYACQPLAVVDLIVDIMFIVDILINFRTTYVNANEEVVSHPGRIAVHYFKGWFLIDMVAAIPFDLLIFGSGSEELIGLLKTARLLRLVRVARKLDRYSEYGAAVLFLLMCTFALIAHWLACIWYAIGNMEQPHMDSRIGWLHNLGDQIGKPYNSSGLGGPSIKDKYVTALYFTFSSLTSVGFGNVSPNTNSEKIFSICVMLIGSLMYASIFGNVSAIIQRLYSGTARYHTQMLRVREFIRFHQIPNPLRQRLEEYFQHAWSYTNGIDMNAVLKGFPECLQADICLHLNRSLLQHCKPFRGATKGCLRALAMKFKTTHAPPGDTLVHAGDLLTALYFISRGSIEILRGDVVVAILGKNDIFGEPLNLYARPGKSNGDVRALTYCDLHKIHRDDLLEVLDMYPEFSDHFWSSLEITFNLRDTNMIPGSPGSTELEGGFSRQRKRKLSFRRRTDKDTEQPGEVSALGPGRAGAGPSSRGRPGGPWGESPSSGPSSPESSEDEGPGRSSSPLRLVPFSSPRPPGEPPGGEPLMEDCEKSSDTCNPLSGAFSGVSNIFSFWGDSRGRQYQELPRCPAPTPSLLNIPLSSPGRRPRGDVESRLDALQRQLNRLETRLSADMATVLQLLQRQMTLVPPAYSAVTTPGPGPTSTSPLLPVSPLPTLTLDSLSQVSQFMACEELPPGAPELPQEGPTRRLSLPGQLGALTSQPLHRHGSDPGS", "assay": "Radioligand displacement (Ricerca)", "assay_type": "binding"}, "Transporter, NET": {"target": "T2, Transporter, NET (Homo sapiens, UniProt P23975)", "T2 construct": "Ricerca (contract panel)", "T2 sequence (P23975 whole entry)": "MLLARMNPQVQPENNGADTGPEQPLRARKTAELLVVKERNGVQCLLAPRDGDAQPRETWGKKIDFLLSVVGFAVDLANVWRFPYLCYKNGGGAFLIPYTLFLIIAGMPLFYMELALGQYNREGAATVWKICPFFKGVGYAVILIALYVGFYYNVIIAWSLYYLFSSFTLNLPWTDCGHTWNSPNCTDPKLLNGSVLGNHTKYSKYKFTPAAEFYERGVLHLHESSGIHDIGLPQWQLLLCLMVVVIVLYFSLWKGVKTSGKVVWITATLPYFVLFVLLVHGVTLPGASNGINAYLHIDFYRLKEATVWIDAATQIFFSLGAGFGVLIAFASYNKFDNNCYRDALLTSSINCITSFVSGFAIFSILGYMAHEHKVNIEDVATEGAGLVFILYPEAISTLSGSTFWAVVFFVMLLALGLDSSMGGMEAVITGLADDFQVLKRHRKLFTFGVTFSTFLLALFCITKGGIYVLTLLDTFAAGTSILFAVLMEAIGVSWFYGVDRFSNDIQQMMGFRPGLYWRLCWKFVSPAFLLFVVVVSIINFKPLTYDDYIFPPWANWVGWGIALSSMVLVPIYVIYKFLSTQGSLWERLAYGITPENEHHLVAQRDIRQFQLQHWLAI", "assay": "Radioligand displacement (Ricerca)", "assay_type": "binding"}, "GIRK1/2": {"target": "T3, GIRK1/2 (Homo sapiens, UniProt P48051+P48549)", "T3 sequence (P48549 1-501)": "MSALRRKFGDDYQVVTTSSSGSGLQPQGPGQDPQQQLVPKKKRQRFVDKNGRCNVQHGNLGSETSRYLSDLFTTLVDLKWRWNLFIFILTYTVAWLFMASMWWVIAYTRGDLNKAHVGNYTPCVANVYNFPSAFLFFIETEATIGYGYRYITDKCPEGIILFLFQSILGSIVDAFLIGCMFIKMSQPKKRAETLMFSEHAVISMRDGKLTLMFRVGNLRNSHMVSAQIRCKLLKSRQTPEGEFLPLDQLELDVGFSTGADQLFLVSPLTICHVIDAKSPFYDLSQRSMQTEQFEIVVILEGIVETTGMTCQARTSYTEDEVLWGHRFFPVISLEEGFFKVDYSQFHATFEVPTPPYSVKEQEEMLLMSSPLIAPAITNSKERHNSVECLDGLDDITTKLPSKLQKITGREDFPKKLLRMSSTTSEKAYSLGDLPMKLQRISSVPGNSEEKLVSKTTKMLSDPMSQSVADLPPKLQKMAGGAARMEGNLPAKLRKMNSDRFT", "T3 sequence (P48051 1-423)": "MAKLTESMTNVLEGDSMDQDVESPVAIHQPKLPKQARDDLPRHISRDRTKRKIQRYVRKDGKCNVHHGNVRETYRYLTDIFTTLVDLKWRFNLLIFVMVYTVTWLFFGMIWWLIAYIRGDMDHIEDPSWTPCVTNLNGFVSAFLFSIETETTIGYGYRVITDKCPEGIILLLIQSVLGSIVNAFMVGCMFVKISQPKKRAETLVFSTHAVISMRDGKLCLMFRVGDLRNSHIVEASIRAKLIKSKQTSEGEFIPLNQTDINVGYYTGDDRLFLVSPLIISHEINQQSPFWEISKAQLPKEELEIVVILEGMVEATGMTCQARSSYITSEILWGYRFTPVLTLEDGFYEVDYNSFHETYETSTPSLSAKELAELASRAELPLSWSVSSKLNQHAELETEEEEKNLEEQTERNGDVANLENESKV", "assay": "Whole-cell voltage-clamp, GIRK1/2-expressing HEK-293 cells", "assay_type": "cell-based", "parameters": "host or cells: HEK-293", "excerpt": "Cell Line Construction and Cell Culture. HEK-293 cells co-expressing human GIRK1/2 and rat mGlu8 were generated as previously described (Niswender et al., 2008). A HEK-293 cell line (ATCC, Manassas, Va.) expressing human GIRK1 and human GIRK2 was constructed by transfecting HEK-293 cells with GIRK1 and GIRK2 (Origene, Rockville, Md.) cloned into the pBudCE4.1 vector (Life Technologies, Carlsbad, Calif.) using FuGene 6 (Promega, Madison, Wis.) transfection reagent. Unless otherwise noted, other ion channel-expressing cells were prepared by transfecting HEK-293 cells with individual or combinations of subunits: GIRK1, pCMV6-A-BSD; GIRK2, pCMV6-A-puro; GIRK3, pCMV6-A-hygro; GIRK4, pCMV6-A-AC; Kv7.4, pIRESneo3. The Kir2.1 and hERG-expressing cell lines were made by transfecting T-REx-293 cells (Life Technologies, Carlsbad, Calif.) with Kir2.1 and Kv11.1, respectively, cloned into pcDNA5TO. Monoclonal cell lines were produced by limiting-dilution cloning of antibiotic-resistant cells and functional selection using the thallium flux assay described below. Unless otherwise noted, cells were maintained in Minimal Essential Medium, Alpha Medium (Mediatech, Manassas, Va.) supplemented with 10% fetal bovine serum (Sigma-Aldrich, Saint Louis, Mo.) and GlutaGro (Mediatech, Manassas, Va.), referred to henceforth as cell culture medium. […]\nA single-cell suspension of HEK-293 cells stably transfected with the appropriate ion channels were plated into TC-treated 35 mm polystyrene dishes at ˜15% confluence and incubated overnight in a 5% CO2 cell culture incubator at 37° C. […] Whole cell currents were recorded in 20K extracellular solution at −70 mV using a Pico 1 amplifier (Tecella, Foothill Ranch, Calif.) controlled by WINWCP 4.X (University of Strathclyde, Glasgow, Scotland, UK). […] One day after transfection, cells were plate into 35 mm polystyrene dishes, incubated and recorded as described above. […]\nVoltage-clamp data were analyzed by converting current amplitudes to current density by dividing by each cell's membrane capacitance estimated from capacitance compensation. […]"}, "GABAA (muscimol)": {"tested_on": "GABAA (muscimol)", "assay": "Radioligand displacement (Ricerca)", "assay_type": "binding, rat", "conditions": "10 μM"}, "Glucocorticoid": {"target": "T4, Glucocorticoid (Homo sapiens, UniProt P04150)", "T4 construct": "Ricerca", "T4 sequence (P04150 whole entry)": "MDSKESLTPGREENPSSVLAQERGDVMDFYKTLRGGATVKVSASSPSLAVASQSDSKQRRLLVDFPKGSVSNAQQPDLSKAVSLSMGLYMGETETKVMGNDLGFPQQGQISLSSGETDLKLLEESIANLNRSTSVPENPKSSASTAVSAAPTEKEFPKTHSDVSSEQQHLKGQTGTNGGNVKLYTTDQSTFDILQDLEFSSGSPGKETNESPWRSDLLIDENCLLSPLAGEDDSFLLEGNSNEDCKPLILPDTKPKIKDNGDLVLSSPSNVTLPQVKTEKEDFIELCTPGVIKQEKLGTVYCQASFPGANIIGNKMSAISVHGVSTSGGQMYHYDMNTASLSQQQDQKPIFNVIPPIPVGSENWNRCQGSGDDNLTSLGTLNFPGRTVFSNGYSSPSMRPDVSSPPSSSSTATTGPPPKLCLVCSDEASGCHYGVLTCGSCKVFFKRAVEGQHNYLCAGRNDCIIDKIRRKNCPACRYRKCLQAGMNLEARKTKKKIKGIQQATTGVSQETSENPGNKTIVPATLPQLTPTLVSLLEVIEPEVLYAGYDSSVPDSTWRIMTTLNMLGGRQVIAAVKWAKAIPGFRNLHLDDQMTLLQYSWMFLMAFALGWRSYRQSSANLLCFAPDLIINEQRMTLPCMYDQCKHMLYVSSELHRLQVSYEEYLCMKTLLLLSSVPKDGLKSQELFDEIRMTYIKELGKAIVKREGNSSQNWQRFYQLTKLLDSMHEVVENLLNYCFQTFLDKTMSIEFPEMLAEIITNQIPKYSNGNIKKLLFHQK", "assay": "Radioligand displacement (Ricerca)", "assay_type": "binding"}, "EGF": {"target": "T5, EGF (Homo sapiens, UniProt P00533)", "T5 construct": "Ricerca", "T5 sequence (P00533 25-1210)": "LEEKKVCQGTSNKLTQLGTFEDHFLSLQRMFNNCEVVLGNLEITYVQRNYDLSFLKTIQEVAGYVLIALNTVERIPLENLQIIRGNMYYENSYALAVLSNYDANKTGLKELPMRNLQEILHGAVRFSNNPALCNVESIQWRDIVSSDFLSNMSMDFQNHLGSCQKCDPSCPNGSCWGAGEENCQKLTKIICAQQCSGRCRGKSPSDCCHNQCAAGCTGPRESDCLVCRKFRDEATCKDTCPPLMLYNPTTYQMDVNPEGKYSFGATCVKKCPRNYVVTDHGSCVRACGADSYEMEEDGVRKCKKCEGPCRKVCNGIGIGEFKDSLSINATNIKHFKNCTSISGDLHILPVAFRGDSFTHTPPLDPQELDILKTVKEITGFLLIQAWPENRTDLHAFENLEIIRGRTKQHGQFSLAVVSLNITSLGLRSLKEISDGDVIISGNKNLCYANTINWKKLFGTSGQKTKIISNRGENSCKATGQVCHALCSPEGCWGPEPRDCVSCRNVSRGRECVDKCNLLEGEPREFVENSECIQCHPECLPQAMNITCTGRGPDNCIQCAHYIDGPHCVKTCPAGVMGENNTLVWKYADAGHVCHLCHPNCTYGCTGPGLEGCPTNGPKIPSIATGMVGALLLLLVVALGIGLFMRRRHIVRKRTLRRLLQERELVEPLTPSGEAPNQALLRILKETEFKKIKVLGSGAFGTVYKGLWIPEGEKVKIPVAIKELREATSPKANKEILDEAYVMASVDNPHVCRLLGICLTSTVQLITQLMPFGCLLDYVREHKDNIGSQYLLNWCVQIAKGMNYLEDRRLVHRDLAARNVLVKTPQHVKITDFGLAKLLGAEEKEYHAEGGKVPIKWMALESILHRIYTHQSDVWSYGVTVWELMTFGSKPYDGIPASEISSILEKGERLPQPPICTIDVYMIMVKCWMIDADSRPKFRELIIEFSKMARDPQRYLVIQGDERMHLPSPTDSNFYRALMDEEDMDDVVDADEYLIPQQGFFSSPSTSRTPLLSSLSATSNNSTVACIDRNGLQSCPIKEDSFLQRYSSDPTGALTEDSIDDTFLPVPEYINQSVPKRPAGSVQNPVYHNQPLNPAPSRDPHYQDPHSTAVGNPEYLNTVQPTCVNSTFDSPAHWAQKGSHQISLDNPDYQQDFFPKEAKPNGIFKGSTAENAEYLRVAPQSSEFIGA", "assay": "Radioligand displacement (Ricerca)", "assay_type": "binding"}},
  "data": [
    {"smiles": "Cc1cc(NC(=O)Nc2ccc(F)c(F)c2)n(-c2ccccc2)n1", "note": "[VU0456810, 1-(3,4-difluorophenyl)-3-(3-methyl-1-phenyl-1H-pyrazol-5-yl)urea]", "values": [
      {"measurement": "% Inhibition", "setting": "Nicotinic acetylcholine", "value": 7, "unit": "%"},
      {"measurement": "inhibition at 10 µM", "setting": "hERG", "value": 10, "unit": "%"},
      {"measurement": "inhibition at 10 µM", "setting": "Transporter, NET", "value": 15, "unit": "%"},
      {"measurement": "time to 90% of maximal current amplitude after application", "setting": "GIRK1/2; 10 μM, local superfusion", "value": "approximately 2 seconds"},
      {"measurement": "washout time", "setting": "GIRK1/2; after application was terminated", "value": "nearly a minute"},
      {"measurement": "EC50", "setting": "GIRK1/2; cell line GIRK1-2, average ± SEM", "value": "584 ± 175", "unit": "nM"},
      {"measurement": "% Inhibition", "setting": "GABAA (muscimol)", "value": 49, "unit": "%"},
      {"measurement": "inhibition at 10 µM", "setting": "Glucocorticoid", "value": 2, "unit": "%"},
      {"measurement": "inhibition at 10 µM", "setting": "EGF", "value": -2, "unit": "%"}
    ]}
  ]
}
